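Cultured in 96-well plates, cells were exposed to test compound for 48 hours across five concentrations. Here, GI50 denotes the concentration required for 50% inhibition of growth.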 Calls of active or inactive are those of the source. No stated cut-off is given here; in the data, active = GI50 up to about 1.1 µM and inactive = higher.
How the values were obtained:
Assay in all cases: NCI anticancer screen, dose series, 48 h
[1] = tested on: HT-29
[2] = tested on: M19-MEL
[3] = tested on: CCRF-CEM
[4] = tested on: SF-539
[5] = tested on: NCI-H522
[6] = tested on: NCI-H23
[7] = tested on: HOP-62
[8] = tested on: UO-31
[9] = tested on: UACC-257
[10] = tested on: SF-295
[11] = tested on: SNB-75
[12] = tested on: OVCAR-8
[13] = tested on: SK-MEL-5
[14] = tested on: HOP-92
[15] = tested on: EKVX
[16] = tested on: 786-0
[17] = tested on: SK-MEL-28
[18] = tested on: A498
[19] = tested on: Hs-578T
[20] = tested on: BT-549

| SMILES | GI50 [1] | GI50 [2] | GI50 [3] | GI50 [4] | GI50 [5] | GI50 [6] | GI50 [7] | GI50 [8] | GI50 [9] | GI50 [10] | GI50 [11] | GI50 [12] | GI50 [13] | GI50 [14] | GI50 [15] | GI50 [16] | GI50 [17] | GI50 [18] | GI50 [19] | GI50 [20] |
| --- | --- | --- | --- | --- | --- | --- | --- | --- | --- | --- | --- | --- | --- | --- | --- | --- | --- | --- | --- | --- |
| O=C(/C=C/c1ccccc1)CC1OC(=O)c2ccccc21 (configuration not stated) | > 100 µM (inactive) | 45.8 µM (inactive) | 32.8 µM (inactive) | 36.1 µM (inactive) | 31.3 µM (inactive) | 47.1 µM (inactive) | > 100 µM (inactive) | > 100 µM (inactive) | 81.8 µM (inactive) | 85.5 µM (inactive) | 45.5 µM (inactive) | > 100 µM (inactive) | > 100 µM (inactive) | 48.8 µM (inactive) | > 100 µM (inactive) | > 100 µM (inactive) | > 100 µM (inactive) | > 100 µM (inactive) | – | – |
| N#CC1CC(c2ccccc2)Nc2cc(Cl)ccc2N1 (configuration not stated) | 24.4 µM (inactive) | 44.8 µM (inactive) | 3.18 µM (inactive) | 38.3 µM (inactive) | 3.68 µM (inactive) | 31.6 µM (inactive) | 55.7 µM (inactive) | > 100 µM (inactive) | > 81.7 µM (inactive) | 40.9 µM (inactive) | 36.5 µM (inactive) | 33 µM (inactive) | 41.2 µM (inactive) | 26.7 µM (inactive) | > 79.6 µM (inactive) | 24.1 µM (inactive) | > 93.8 µM (inactive) | > 100 µM (inactive) | – | – |
| Cc1cc(N(CCC#N)CCC#N)ccc1/C=C1N=C(/C=C\c2ccccc2)N(NC(=O)CC(=O)Nc2ccccc2Cl)C\1=O | > 100 µM (inactive) | > 100 µM (inactive) | > 100 µM (inactive) | > 100 µM (inactive) | > 100 µM (inactive) | > 100 µM (inactive) | > 100 µM (inactive) | > 100 µM (inactive) | > 100 µM (inactive) | > 100 µM (inactive) | > 100 µM (inactive) | > 100 µM (inactive) | > 100 µM (inactive) | > 100 µM (inactive) | – | > 100 µM (inactive) | > 100 µM (inactive) | > 100 µM (inactive) | – | – |
| CN(Cc1cnc2nc(N)nc(N)c2n1)c1ccc(C(=O)NC(CCC(=O)O)C(=O)O)c2ccccc12 (configuration not stated) | 0.00168 µM (active) | 0.01 µM (active) | 0.000843 µM (active) | 0.00577 µM (active) | – | 0.00773 µM (active) | < 0.0185 µM (active) | 0.00638 µM (active) | 0.0425 µM (active) | 0.00604 µM (active) | 0.0693 µM (active) | 0.00378 µM (active) | 0.0107 µM (active) | – | < 0.1 µM (active) | 0.00303 µM (active) | 0.0805 µM (active) | 0.0526 µM (active) | 0.0982 µM (active) | 0.092 µM (active) |
| CC1=C(C(=O)Nc2cccc(Cl)c2)C(c2ccccc2O)C(C(=O)Nc2cccc(Cl)c2)=C(C)N1 | 18.8 µM (inactive) | 19.4 µM (inactive) | 22.3 µM (inactive) | 16.7 µM (inactive) | 17.1 µM (inactive) | 17.3 µM (inactive) | 19.3 µM (inactive) | 17.2 µM (inactive) | 20.2 µM (inactive) | 22.1 µM (inactive) | 14.9 µM (inactive) | 25.2 µM (inactive) | 17.4 µM (inactive) | 20.1 µM (inactive) | 22.4 µM (inactive) | 15.7 µM (inactive) | 17.1 µM (inactive) | 19.5 µM (inactive) | – | – |
| CCOP(=O)(OCC)OC(C#N)c1ccc(-c2ccccc2)cc1 (configuration not stated) | 17.9 µM (inactive) | 21.9 µM (inactive) | 22.4 µM (inactive) | 20.8 µM (inactive) | 14.9 µM (inactive) | 27 µM (inactive) | 34.5 µM (inactive) | 47.3 µM (inactive) | 20.8 µM (inactive) | 70.6 µM (inactive) | 27.7 µM (inactive) | 19.5 µM (inactive) | 16 µM (inactive) | 14.4 µM (inactive) | 49 µM (inactive) | 16.9 µM (inactive) | 31.4 µM (inactive) | 24.2 µM (inactive) | – | – |
| COc1ccc(/C=C\c2cc(OC)c(O[Si](C)(C)C(C)(C)C)c(OC)c2)cc1 | 15 µM (inactive) | 32.3 µM (inactive) | 23.7 µM (inactive) | 37.8 µM (inactive) | 38.5 µM (inactive) | 54 µM (inactive) | > 100 µM (inactive) | 80.9 µM (inactive) | 21.7 µM (inactive) | – | 64.9 µM (inactive) | 15.6 µM (inactive) | > 10 µM (inactive) | 28.3 µM (inactive) | 70 µM (inactive) | 39.9 µM (inactive) | 13.2 µM (inactive) | 21 µM (inactive) | – | – |
| CC(C)(C)C(=O)C1CC(=O)c2ccccc2C1=O (configuration not stated) | – | 32.9 µM (inactive) | 33.4 µM (inactive) | 34.3 µM (inactive) | 23.6 µM (inactive) | 20.7 µM (inactive) | 25.2 µM (inactive) | 21.7 µM (inactive) | 18.2 µM (inactive) | 36.2 µM (inactive) | 5.98 µM (inactive) | 37 µM (inactive) | 32.4 µM (inactive) | 24.8 µM (inactive) | 32.4 µM (inactive) | 32.6 µM (inactive) | 20.5 µM (inactive) | 42.3 µM (inactive) | – | – |
| CC(=O)OC1CC2(c3ccccc3)C(=O)c3ccccc3N2O1 (configuration not stated) | > 100 µM (inactive) | > 100 µM (inactive) | > 100 µM (inactive) | > 100 µM (inactive) | > 100 µM (inactive) | > 100 µM (inactive) | > 100 µM (inactive) | > 100 µM (inactive) | > 100 µM (inactive) | > 100 µM (inactive) | > 100 µM (inactive) | > 100 µM (inactive) | > 100 µM (inactive) | 65.8 µM (inactive) | 78.3 µM (inactive) | > 100 µM (inactive) | > 100 µM (inactive) | > 100 µM (inactive) | – | – |
| NN1C(=O)C(CCO)S/C1=N/N=C1/SC(CCO)C(=O)N1N (configuration not stated) | > 100 µM (inactive) | > 100 µM (inactive) | > 100 µM (inactive) | > 100 µM (inactive) | > 100 µM (inactive) | > 100 µM (inactive) | > 100 µM (inactive) | > 100 µM (inactive) | > 100 µM (inactive) | > 100 µM (inactive) | > 100 µM (inactive) | > 100 µM (inactive) | > 100 µM (inactive) | > 100 µM (inactive) | > 100 µM (inactive) | > 100 µM (inactive) | > 100 µM (inactive) | > 100 µM (inactive) | – | – |
| Oc1ccc2ccccc2c1/N=N/c1ccc(F)cc1 | > 100 µM (inactive) | > 100 µM (inactive) | > 100 µM (inactive) | > 100 µM (inactive) | > 100 µM (inactive) | > 100 µM (inactive) | > 100 µM (inactive) | 42.6 µM (inactive) | – | > 100 µM (inactive) | > 100 µM (inactive) | > 100 µM (inactive) | > 100 µM (inactive) | > 100 µM (inactive) | – | > 100 µM (inactive) | > 100 µM (inactive) | > 100 µM (inactive) | – | – |
| COCCN1C2=CCCCC2=Nc2c1nc(N)[nH]c2=O | > 100 µM (inactive) | > 100 µM (inactive) | > 100 µM (inactive) | > 100 µM (inactive) | > 100 µM (inactive) | > 100 µM (inactive) | > 100 µM (inactive) | > 100 µM (inactive) | > 100 µM (inactive) | > 100 µM (inactive) | > 100 µM (inactive) | > 100 µM (inactive) | > 100 µM (inactive) | > 100 µM (inactive) | > 100 µM (inactive) | > 100 µM (inactive) | > 100 µM (inactive) | > 100 µM (inactive) | – | – |
| CC1(C)COC(c2cccnc2/C=N/O)=N1 | > 100 µM (inactive) | > 100 µM (inactive) | > 100 µM (inactive) | > 100 µM (inactive) | > 100 µM (inactive) | > 100 µM (inactive) | > 100 µM (inactive) | > 100 µM (inactive) | > 100 µM (inactive) | > 100 µM (inactive) | > 100 µM (inactive) | > 100 µM (inactive) | > 100 µM (inactive) | > 100 µM (inactive) | > 100 µM (inactive) | > 100 µM (inactive) | > 100 µM (inactive) | > 100 µM (inactive) | – | – |
| O=C(O)[C@@H]1OCCOCCO[C@@H](C(=O)O)[C@H](C(=O)O)OCCOCCO[C@H]1C(=O)O | > 100 µM (inactive) | > 100 µM (inactive) | > 51.2 µM (inactive) | > 100 µM (inactive) | > 100 µM (inactive) | > 100 µM (inactive) | > 100 µM (inactive) | > 100 µM (inactive) | > 100 µM (inactive) | > 100 µM (inactive) | 97.9 µM (inactive) | > 100 µM (inactive) | > 100 µM (inactive) | > 100 µM (inactive) | > 100 µM (inactive) | > 100 µM (inactive) | > 100 µM (inactive) | > 100 µM (inactive) | – | – |
